Experimental data as given in patent publication US6376243B1, “DNA encoding a human serotonin receptor (5-HT4B) and uses thereof” (Synaptic Pharmaceutical Corporation, priority 1992, dated 2002).
Read-outs that look alike come from different tables or passages of the source.

Assays:
human 5-HT4B receptor = human 5-HT4B receptor (Homo sapiens, UniProt P34969); test: cAMP formation in intact Cos-7 cells transiently expressing the receptor; details: for inhibition at 10 µM: COS-7, read-out: % INHIBITION OF 5-HT RESPONSE
[1] = biological target: T1, clone hp78a (human 5-HT4B receptor) (Homo sapiens, UniProt P34969); test: Competition of [3H]5-HT binding to membranes of cells transiently expressing clone hp78a
[2] = biological target: T1, clone hp78a (human 5-HT4B receptor); test: [3H]5-HT saturation binding to membranes of transiently transfected Cos-7 cells; details: 100 μM Gpp(NH)p; membranes from transient transfectants
[3] = Apparent dissociation constant Ki
[4] = competitor 100 nM, 5 nM [3H]5-HT, 30 min at 37° C.
[5] = Apparent dissociation constant Ki, 5 nM [3H]5-HT, seven concentrations of competitor, 30 min at 37° C., Cheng-Prusoff, mean ± S.E.M. from 2-3 determinations
[6] = 5 nM [3H]5-HT, 30 min at 37° C., mean ± S.E.M.
[7] = read-out: Apparent dissociation constant Ki

human 5-HT4B receptor, sequence (P34969 1-445 isoform P34969-2): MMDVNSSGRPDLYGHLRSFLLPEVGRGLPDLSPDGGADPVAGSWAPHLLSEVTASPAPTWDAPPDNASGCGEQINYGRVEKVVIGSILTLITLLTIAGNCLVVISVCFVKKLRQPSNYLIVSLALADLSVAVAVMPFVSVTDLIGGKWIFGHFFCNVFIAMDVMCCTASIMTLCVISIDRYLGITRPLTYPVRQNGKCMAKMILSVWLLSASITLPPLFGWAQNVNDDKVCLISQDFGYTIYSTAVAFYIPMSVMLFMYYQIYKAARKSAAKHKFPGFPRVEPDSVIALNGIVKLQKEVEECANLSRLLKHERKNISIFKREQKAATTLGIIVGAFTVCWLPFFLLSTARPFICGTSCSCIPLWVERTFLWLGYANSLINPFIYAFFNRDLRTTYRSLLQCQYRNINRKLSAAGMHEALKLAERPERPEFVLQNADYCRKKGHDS
T1 sequence (P34969 1-445 isoform P34969-2): as above

COc1cc(N)c(Cl)cc1C(=O)NC1CCN(CCCOc2ccc(F)cc2)CC1OC (centres unmarked) [cisapride]
activity at the 5-HT4B receptor (human 5-HT4B receptor; discussion statement): either poorly active or inactive

CC(C)C[C@H]1C(=O)N2CCC[C@H]2[C@]2(O)O[C@](NC(=O)[C@@H]3C=C4c5cccc6[nH]c(Br)c(c56)C[C@H]4N(C)C3)(C(C)C)C(=O)N12 [Bromocriptine]
Hill coefficient nH [1]: 1.15
Ki [1, 3]: 135 nM

CN(C)CCc1c[nH]c2ccc(O)cc12 [Bufotenin]
PERCENT INHIBITION of specific [3H]5-HT binding [1]: 40%

O=C(CCCN1CCC2(CC1)C(=O)NCN2c1ccccc1)c1ccc(F)cc1 [Spiperone]
PERCENT INHIBITION of specific [3H]5-HT binding [1, 4]: 64%

CC(C)NCC(O)COc1cccc2[nH]ccc12 (racemic) [Pindolol]
PERCENT INHIBITION of specific [3H]5-HT binding [1]: 11%

COc1cc(N)c(Cl)cc1C(=O)NC1CN2CCC1CC2 (centres unmarked) [Zacopride]
activity at the 5-HT4B receptor (human 5-HT4B receptor; discussion statement): either poorly active or inactive
Ki [1, 5]: > 500 nM
PERCENT INHIBITION of specific [3H]5-HT binding [1, 4]: 0%

CCCN(CCC)C1CCc2cccc(O)c2C1 (centres unmarked) [DPAT]
Hill coefficient nH [1, 6]: 0.76

CN1C[C@@H](NS(=O)(=O)N(C)C)C[C@@H]2c3cccc4c3c(cn4C)C[C@H]21 [Mesulergine]
Hill coefficient nH [1, 6]: 1.09
Ki [1, 5]: 9.6 nM

CNS(=O)(=O)Cc1ccc2[nH]cc(CCN(C)C)c2c1 [Sumatriptan]
Hill coefficient nH [1, 6]: 0.88 ± 0.03
Ki [1, 5]: 764 ± 29 nM

CN1[C@@H]2CC[C@H]1C[C@@H](OC(=O)c1c[nH]c3ccccc13)C2 [ICS 203930]
inhibitory effect on the 5-HT cAMP response (human 5-HT4B receptor; 100 μM): weak inhibitory effect
activity at the 5-HT4B receptor (human 5-HT4B receptor; discussion statement): either poorly active or inactive
Ki ([1]; read-out: Apparent dissociation constant Ki, 5 nM [3H]5-HT, seven concentrations of competitor, 30 min at 37° C., Cheng-Prusoff, mean ± S.E.M. from 2-3 determinations): > 500 nM

CN1C[C@H](C(=O)N[C@]2(C)O[C@@]3(O)[C@@H]4CCCN4C(=O)[C@H](Cc4ccccc4)N3C2=O)C[C@@H]2c3cccc4[nH]cc(c34)C[C@H]21 [Dihydroergotamine]
Hill coefficient nH [1]: 1.36 ± 0.08
Ki [1, 3]: 6 ± 0.2 nM
Ki [1, 7]: 5 to 10 nM

Cc1[nH]c2ccc(O)cc2c1CCN [2-Me-5-HT]
PERCENT INHIBITION of specific [3H]5-HT binding [1]: 7%

CN1CCC(=C2c3ccccc3C=Cc3ccccc32)CC1 [Cyproheptadine]
PERCENT INHIBITION of specific [3H]5-HT binding ([1]; competitor 30 nM, 5 nM [3H]5-HT, 30 min at 37° C.): 36%

Nc1nc2c(ncn2[C@@H]2O[C@H](COP(=O)(O)OP(=O)(O)NP(=O)(O)O)[C@@H](O)[C@H]2O)c(=O)[nH]1 [Gpp(NH)p, 5′-guanylylimidodiphosphate]
reduction of high affinity [3H]5-HT binding [2]: 75%

O=C(c1ccc(F)cc1)C1CCN(CCn2c(=O)[nH]c3ccccc3c2=O)CC1 [Ketanserin]
Ki [1, 5]: > 100 nM
PERCENT INHIBITION of specific [3H]5-HT binding [1, 4]: 17%

NCCc1c[nH]c2ccccc12 [Tryptamine]
PERCENT INHIBITION of specific [3H]5-HT binding [1]: 32%

c1ccc2c(N3CCNCC3)cccc2c1 [1-NP, 1-naphthylpiperazine]
PERCENT INHIBITION of specific [3H]5-HT binding [1]: 44%

CC[C@@H](CO)NC(=O)[C@@H]1C=C2c3cccc4c3c(cn4C)C[C@H]2N(C)C1 [Methysergide]
antagonism of the 5-HT cAMP response (human 5-HT4B receptor): almost completely
inhibition at 10 µM (human 5-HT4B receptor): 82 ± 1.5%
PERCENT INHIBITION of specific [3H]5-HT binding [1]: 51%

CCN(CC)C(=O)[C@@H]1C=C2c3cccc4[nH]c(Br)c(c34)C[C@H]2N(C)C1 [2-Br-LSD]
FOLD cAMP STIMULATION relative to basal levels (human 5-HT4B receptor; drug 1 μM, intact Cos-7 cells): 0 fold
Hill coefficient nH [1]: 1.02 ± 0.16
Ki [1, 7]: 39 ± 7 nM

CN1C[C@H](C(=O)N[C@]2(C)O[C@@]3(O)[C@@H]4CCCN4C(=O)[C@H](Cc4ccccc4)N3C2=O)C=C2c3cccc4[nH]cc(c34)C[C@H]21 [Ergotamine]
PERCENT INHIBITION of specific [3H]5-HT binding [1]: 79%

Cc1nc2sccn2c(=O)c1CCN1CCC(=C(c2ccc(F)cc2)c2ccc(F)cc2)CC1 [Ritanserin]
PERCENT INHIBITION of specific [3H]5-HT binding ([1]; competitor 10 nM, 5 nM [3H]5-HT, 30 min at 37° C.): 32%

NCCc1c[nH]c2ccc(O)cc12 [5-HT, 5-hydroxytryptamine]
inhibition of basal or FSK-stimulated cAMP release (human 5-HT4B receptor; 5-HT 1 μM, transfected Cos-7 cells): not observed
increase in cAMP release over basal levels (human 5-HT4B receptor; discussion statement): 20 fold
Ki in binding assays higher affinity than EC50 in functional assays (human 5-HT4B receptor; ratio of EC50 to Ki): approximately 100 fold
Hill coefficient nH [1, 6]: 1.07 ± 0.07

CN1C[C@H](CNC(=O)OCc2ccccc2)C[C@@H]2c3cccc4c3c(cn4C)C[C@H]21 [Metergoline]
antagonism of the 5-HT cAMP response (human 5-HT4B receptor; 10 μM): almost completely
inhibition at 10 µM (human 5-HT4B receptor): 96 ± 1%
Hill coefficient nH [1, 6]: 1.23
Ki [1, 5]: 5.5 nM

COc1ccc2[nH]cc(CCN)c2c1 [5-MeOT]
agonist activity on cAMP (human 5-HT4B receptor): potent agonists
Hill coefficient nH [1]: 1.00 ± 0.03

CCCN(CCC)CCc1c[nH]c2ccc(C(N)=O)cc12 [DP-5-CT]
Hill coefficient nH [1]: 0.78
Ki [1, 7]: 62 nM
